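Each compound was tested at five concentrations against cells in 96-well plates for 48 hours. GI50: concentration for 50% inhibition of growth. TGI denotes the concentration required for complete inhibition of growth.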
Assays:
Test in all cases: NCI tumour cell line growth inhibition, 48 h
BT-549 breast = system: BT-549 breast
COLO 205 colon = system: COLO 205 colon
HCT-116 colon = system: HCT-116 colon
OVCAR-3 ovarian = system: OVCAR-3 ovarian
OVCAR-8 ovarian = system: OVCAR-8 ovarian
SK-MEL-2 melanoma = system: SK-MEL-2 melanoma
SNB-19 CNS = system: SNB-19 CNS
SW-620 colon = system: SW-620 colon
U251 CNS = system: U251 CNS
UACC-62 melanoma = system: UACC-62 melanoma

SMILES | GI50 (BT-549 breast) [µM] | TGI (BT-549 breast) [µM] | GI50 (COLO 205 colon) [µM] | TGI (COLO 205 colon) [µM] | GI50 (HCT-116 colon) [µM] | TGI (HCT-116 colon) [µM] | GI50 (OVCAR-3 ovarian) [µM] | TGI (OVCAR-3 ovarian) [µM] | GI50 (OVCAR-8 ovarian) [µM] | TGI (OVCAR-8 ovarian) [µM] | GI50 (SK-MEL-2 melanoma) [µM] | TGI (SK-MEL-2 melanoma) [µM] | GI50 (SNB-19 CNS) [µM] | TGI (SNB-19 CNS) [µM] | GI50 (SW-620 colon) [µM] | TGI (SW-620 colon) [µM] | GI50 (U251 CNS) [µM] | TGI (U251 CNS) [µM] | GI50 (UACC-62 melanoma) [µM] | TGI (UACC-62 melanoma) [µM]
CN(C)c1ccc(/C=C/c2cc[n+](C)c(/C=C/c3ccc(N(C)C)cc3)c2)cc1 | 0.349 | 1.61 | 0.176 | 0.356 | 0.278 | 1.24 | 0.337 | 1.56 | 0.294 | 1.26 | 0.256 | 0.713 | 0.322 | 2.95 | 0.336 | 5.6 | 0.286 | 1.41 | 0.357 | 1.68
CN(C)CCCNC(=O)c1cc(NC(=O)c2cc(NC(=O)CCNS(=O)(=O)c3ccc4c(c3)C(=O)c3ccccc3C4=O)cn2C)cn1C | > 100 | > 100 | > 100 | > 100 | – | – | > 100 | > 100 | > 100 | > 100 | > 100 | > 100 | > 100 | > 100 | > 100 | > 100 | > 100 | > 100 | > 100 | > 100
CN(C)CCNC(=O)c1ccc(NC(=O)c2nc([N+](=O)[O-])cn2C)cc1 | – | > 100 | – | > 100 | – | > 100 | – | > 100 | – | > 100 | – | > 100 | – | – | – | > 100 | – | > 100 | – | > 100
COc1cc(C2CC(c3ccc(Nc4ccnc5cc(Cl)ccc45)cc3)=NN2c2ccc(Cl)cc2)cc(OC)c1OC (stereo not given) | 2.93 | > 100 | 3.28 | 31.5 | 3.08 | > 100 | 1.87 | > 100 | 4.19 | > 100 | 2.35 | 6.6 | 4.91 | > 100 | 2.55 | > 100 | 2.91 | > 100 | 1.17 | 5.54
N#C/C(=C\c1ccc(Br)cc1)n1nnc2ccc(F)cc21 | 0.671 | 3.63 | 1.54 | 4 | 0.741 | 2.35 | 0.373 | 1.49 | 1.84 | 18.2 | 1.56 | 4.98 | 1.66 | 3.16 | 0.447 | 2.34 | 1.64 | 3.34 | 0.713 | 2.71
O=C(/C=C/c1ccc(C(F)(F)F)cc1)c1ccc(Nc2nc(NCCO)nc(Nc3ccc(Cl)cc3)n2)cc1 | 3.07 | 7.97 | 4.8 | 17.3 | 1.48 | 2.83 | 2.75 | 8.12 | 5.66 | 31.3 | 11.7 | 24.5 | – | – | 2.17 | 5.04 | 2.18 | 5.57 | 6.32 | 19.5
CSc1nc(SC)c2c(CO)c(Br)n(Cc3ccccc3)c2n1 | – | 62.4 | – | > 100 | – | > 100 | – | > 100 | – | 44.1 | – | > 100 | – | 84.3 | – | > 100 | – | 26.3 | – | 41.9

— PubChem BioAssay (NCI)
